Reference: patent EP0354522A1, “Use of alpha-aminoboronic acid derivatives in prevention and treatement of viral diseases” (HOECHST AKTIENGESELLSCHAFT, priority 1988, dated 1990)

Target: T1, HIV-Protease (Human immunodeficiency virus type 1 group M subtype B, UniProt P04585)
T1 construct: Max-Planck-Institut für Molekulare Genetik, Berlin
Assay: HIV protease test (cleavage of heptapeptide Ser-Phe-Asn-Phe-Pro-Gln-Ile, HPLC quantification of Ser-Phe-Asn-Phe)
Type: biochemical
Conditions: 2 h, 37°C; for IC50: cloned HIV protease, pH ca. 6,0; for activity at 100 µM: residual enzyme activity at 10^-4 M inhibitor, 100 % = mean of runs without inhibitor, pH ca. 6,0, 1 % DMSO, read-out: Restakt. bei 10^-4 M
Description: Als synthetisches Substrat ist ein Heptapeptid der Sequenz Ser-Phe-Asn-Phe-Pro-Gln-Ile geeignet. Diese Sequenz tritt im natürlichen Substrat der Protease auf und liefert bei der autokatalytischen Freisetzung nach einer Phe-Pro-Spaltung den N-terminalen Beginn der Proteasesequenz (Pro-Gln-Ile...).
Es wird eine klonierte HIV-Protease (Max-Planck-Institut für Molekulare Genetik, Berlin) benutzt. [drawing 5]
Von den Reaktionsprodukten wird Ser-Phe-Asn-Phe zur Abtrennung und quantitativen Bestimmung mittels HPLC herangezogen.
Nach 2 Stunden bei 37°C werden die Ansätze mit 225 µl HPLC-Elutionsmittel (s.u.) gestoppt. Etwa 150 µl des zentrifugierten Überstands (Eppendorf-Zentrifuge) werden in Mikrovials gefüllt. Das Injektionsvolumen für die HPLC-Trennung beträgt 20 µl. Ser-Phe-Asn-Phe wird durch Vergleich mit einem externen Standard bekannter Konzentration (0,5 µg/ 20 µl) quantitativ bestimmt und stellt die Meßgröße der Enzymaktivität (µg Tetrapeptid pro 20 µl Meßprobe) dar. Bezugswert (= 100 % Enzymaktivität) ist der Mittelwert aus 2 oder mehr Ansätzen ohne Inhibitor. Als Standard-Inhibitor wird Pepstatin A (10⁻⁴ oder 10⁻⁵ M) verwendet.
• a) Substratlösung: 2 mg Ser-Phe-Asn-Phe-Pro-Gln-Ile werden in 1 ml MGTE 15-Puffer gelöst. • b) Testsubstanzen: Diese werden 10⁻² oder 10⁻³ M in Dimethylsulfoxid (DMSO) gelöst und 1 : 40 mit MGTE 15-Puffer verdünnt; 10 µl dieser Lösung werden pro Ansatz verwendet; die Endkonzentration des Präparates beträgt 10⁻⁴ bzw. 10⁻⁵ M; die DMSO-Konzentration in allen Testansätzen ist 1 %. Für IC₅₀-Bestimmungen wird das Präparat, ausgehend von 10⁻² M, mit 100 % DMSO in der geeigneten Weise verdünnt. • c) Proteaselösung: Das Enzym wird mit MGTE 25-Puffer auf eine geeignete Konzentration verdünnt. • d) MGTE 15/25-Puffer 20 mM Morpholinoethansulfonsäure (MES) 15 (25) % (w/v) Glyzerin 0,1 % (v/v) Triton® X 100 (vgl. Merck Index 10, 6601) 5 mM EDTA 0,5 M NaCl 1 mM Dithiothreit (nur für MGTE 25) 1 mM Phenylmethylsulfonylfluorid (PMSF) Der pH-Wert soll ca. 6,0 betragen. • e) HPLC-Elutionsmittel: Eine 0,1 M Phosphorsäure-Lösung wird mit Triethylamin auf pH 2,5 eingestellt. Aus dieser Lösung wird ein Phosphorsäure-Acetonitril-Gemisch mit 22,6 Gewichts-Prozent Acetonitril hergestellt.
Säule: Radial Pak LC Cartridge, 8 mm/C18, 5 µ (der Fa. Waters, USA). Fluß: 1 ml/min Detektoreinstellung: 215 nm, 0,08 AU Zeit pro Analyse: 12 min; Retentionszeiten: Heptapeptid ca. 9,5 min, Tetrapeptid ca. 5,2 min Laufmittel: 77,4 Gew.-% 0,1 M H₃PO₄/pH 2,5 22,6 Gew.-% Acetonitril

Row | Compound | IC50 [µM] | activity at 100 µM [%]
1 | CC(C)CC(=O)N[C@@H](Cc1cccs1)C(=O)N[C@@H](Cc1c[nH]cn1)C(=O)NC(CC1CCCCC1)B1OC(C)(C)C(C)(C)O1 (stereo partly shown) [Beispiel 4] | – | 96
2 | CCC[C@H](NC(=O)[C@H](Cc1ccccc1)NC(=O)CC(C)C)C(=O)NC(Cc1cccc2ccccc12)B1OC(C)(C)C(C)(C)O1 (stereo partly drawn) [Beispiel 10, Iva-Phe-Nva-[(1-Naphthylmethyl),(4,4,5,5-tetramethyl-1,3,2-dioxaborolan-2-yl)]methylamid] | – | 77
3 | CCCC(NC(=O)C(Cc1ccccc1)NC(=O)CC(C)C)C(=O)NC(CC1CCCCC1)B1OC2CC3CC(C3(C)C)C2(C)O1 (stereo not drawn) [Beispiel 12, Iva-Phe-Nva-[Cyclohexylmethyl, (-)-Pinandioxyboryl]methylamid] | – | 64
4 | CCC[C@H](NC(=O)[C@H](Cc1ccccc1)NC(=O)CC(C)C)C(=O)NC(CC1CCC(C)CC1)B1OC(C)(C)C(C)(C)O1 (stereo partly drawn) [Beispiel 14, Iva-Phe-Nva-[(4-Methylcyclohexyl)methyl,(4,4,5,5-tetramethyl-1,3,2-dioxaborolan-2-yl)]methylamid] | – | 75
5 | CC(C)CC(=O)N[C@@H](Cc1ccccc1)C(=O)N(C)[C@@H](Cc1ccccc1)C(=O)NC(CC1CCCCC1)B1OC(C)(C)C(C)(C)O1 (stereo partly shown) [Beispiel 16] | – | 70
6 | CC(C)CC(=O)N[C@@H](Cc1ccccc1)C(=O)N[C@@H](Cc1c[nH]cn1)C(=O)NC(CC1CCCCCCC1)B1OC(C)(C)C(C)(C)O1 (stereo partly drawn) [Beispiel 17, Iva-Phe-His-[Cyclooctylmethyl,(4,4,5,5-tetramethyl-1,3,2-dioxaborolan-2-yl)]methylamid] | 200 | 52
7 | CC(C)CC(=O)N[C@@H](Cc1ccccc1)C(=O)N[C@@H](Cc1c[nH]cn1)C(=O)NC(CC1CCCCCC1)B1OC(C)(C)C(C)(C)O1 (stereo partly drawn) [Beispiel 18, Iva-Phe-His-[Cycloheptylmethyl,(4,4,5,5-tetramethyl-1,3,2-dioxaborolan-2-yl)]methylamid] | – | 36
8 | CC(C)CC(NC(=O)[C@H](Cc1c[nH]cn1)NC(=O)C(Cc1cccc2ccccc12)Cc1cccc2ccccc12)B1OC(C)(C)C(C)(C)O1 (stereo partly drawn) [Beispiel 19, Bis-(1-Naphthylmethyl)acetyl-His-[3-methyl,l-(4,4,5,5-tetramethyl-1,3,2-dioxaborolan-2-yl)]butylamid] | – | 37
9 | CCC[C@H](NC(=O)C(Cc1cccc2ccccc12)CS(=O)(=O)C(C)(C)C)C(=O)NC(CC(C)C)B1OC(C)(C)C(C)(C)O1 (stereo partly shown) [Beispiel 41, [3-t-Butylsulfonyl,2-(1-naphthylmethyl)]propionyl-Nva-[3-methyl,1-(4,4,5,5-tetramethyl-1,3,2-dioxaborolan-2-yl)]butylamid] | – | 35
10 | CCC[C@H](NC(=O)C(Cc1ccccc1)CS(=O)(=O)C(C)(C)C)C(=O)NC(Cc1ccccc1)B1OC(C)(C)C(C)(C)O1 (stereo partly shown) [Beispiel 44] | – | 72
11 | CC1(C)OB(C(Cc2ccccc2)NC(=O)[C@H](CC(N)=O)NC(=O)C(Cc2ccccc2)CS(=O)(=O)C(C)(C)C)OC1(C)C (stereo partly shown) [Beispiel 45, (2-Benzyl,3-t-butylsulfonyl)propionyl-Asn-[Benzyl,(4,4,5,5-tetramethyl-1,3,2-dioxaborolan-2-yl)]methylamid] | 100 | 49
12 | CCC[C@H](NC(=O)C(Cc1cccc2ccccc12)CS(=O)(=O)C(C)(C)C)C(=O)NC(CC(CC)CC)B1OC(C)(C)C(C)(C)O1 (stereo partly shown) [Beispiel 48, [3-t-Butylsulfonyl,2-(1-naphthylmethyl)]propionyl-Nva-[3-Ethyl,1-(4,4,5,5-tetramethyl-1,3,2-dioxaborolan-2-yl)]pentylamid] | 60 | 32

More lines, now with the values ahead:

Row | IC50 [µM] | activity at 100 µM [%] | Compound
13 | 40 | 28 | CCC[C@H](NC(=O)[C@H](Cc1ccccc1)NC(=O)CC(C)C)C(=O)NC(CC1CCCCC1)B1OC(C)(C)C(C)(C)O1 (stereo partly drawn) [Beispiel 1, Iva-Phe-Nva-[Cyclohexylmethyl,(4,4,5,5-tetramethyl-1,3,2-dioxaborolan-2-yl)]methylamid]
14 | – | 74 | CCCC[C@H](NC(=O)[C@H](Cc1ccccc1)NC(=O)CC(C)C)C(=O)NC(CC1CCCCC1)B1OC(C)(C)C(C)(C)O1 (stereo partly drawn) [Beispiel 2, Iva-Phe-Nle-[Cyclohexylmethyl,(4,4,5,5-tetramethyl-1,3,2-dioxaborolan-2-yl)]methylamid]
15 | – | 61 | CC(C)CC(=O)N[C@@H](Cc1ccccc1)C(=O)N[C@@H](Cc1c[nH]cn1)C(=O)NC(CC1CCCCC1)B1OC(C)(C)C(C)(C)O1 (stereo partly drawn) [Beispiel 3, Iva-Phe-His-[Cyclohexylmethyl,(4,4,5,5-tetramethyl-1,3,2-dioxaborolan-2-yl)]methylamid]
16 | – | 96 | CCC[C@H](NC(=O)[C@H](Cc1ccccc1)NC(=O)CC(C)C)C(=O)NC(CC1CCCCCCC1)B1OC(C)(C)C(C)(C)O1 (stereo partly shown) [Beispiel 11]
17 | – | 86 | CCC[C@H](NC(=O)[C@H](Cc1ccccc1)NC(=O)CC(C)C)C(=O)NC(CC1CCCCCC1)B1OC(C)(C)C(C)(C)O1 (stereo partly drawn) [Beispiel 15, Iva-Phe-Nva- (Cycloheptylmethyl,(4,4,5,5-tetramethyl-1,3 2-dioxaborolan-2-yl)]methylamid]
18 | 40 | 22 | CCC[C@H](NC(=O)C(Cc1ccccc1)CS(=O)(=O)C(C)(C)C)C(=O)NC(CC1CCCCC1)B1OC(C)(C)C(C)(C)O1 (stereo partly shown) [Beispiel 35, (2-Benzyl,3-t-butylsulfonyl)propionyl-Nva-[Cyclohexylmethyl,(4,4,5,5-tetramethyl-1,3,2-dioxaborolan-2-yl)]methylamid]
19 | 9 | 11 | CC(C)[C@H](NC(=O)C(Cc1ccccc1)CS(=O)(=O)C(C)(C)C)C(=O)NC(CC1CCCCC1)B1OC(C)(C)C(C)(C)O1 (stereo partly shown) [Beispiel 38, (2-Benzyl,3-t-butylsulfonyl)propionyl-Val-[Cyclohexylmethyl,(4,4,5,5-tetramethyl-1,3,2-dioxaborolan-2-yl)]methylamid]
20 | – | 46 | CCC[C@H](NC(=O)C(Cc1cccs1)CS(=O)(=O)C(C)(C)C)C(=O)NC(CC1CCCCCC1)B1OC(C)(C)C(C)(C)O1 (stereo partly shown) [Beispiel 40, [3-t-Butylsulfonyl,2-(2-thienylmethyl)]propionyl-Nva-[Cycloheptylmethyl,(4,4,5,5-tetramethyl-1,3,2-dioxaborolan-2-yl)]methylamid]
21 | 40 | 45 | CCC[C@H](NC(=O)C(Cc1ccccc1)CS(=O)(=O)C(C)(C)C)C(=O)NC(B1OC(C)(C)C(C)(C)O1)C1CCCCCC1 (stereo partly shown) [Beispiel 46]
22 | 10 | 16 | CCC[C@H](NC(=O)C(Cc1cccc2ccccc12)CS(=O)(=O)C(C)(C)C)C(=O)NC(CC1CCCC1)B1OC(C)(C)C(C)(C)O1 (stereo partly shown) [Beispiel 47, [3-t-Butylsulfonyl,2-(1-naphthylmethyl)]propionyl-Nva-[Cyclopentylmethyl,(4,4,5,5-tetramethyl-1,3,2-dioxaborolan-2-yl)]methylamid]
23 | – | 46 | CCC[C@H](NC(=O)C(Cc1ccccc1)CS(=O)(=O)C(C)(C)C)C(=O)NC(CC(CC)CC)B1OC(C)(C)C(C)(C)O1 (stereo partly shown) [Beispiel 49, (2-Benzyl,3-t-butylsulfonyl)propionyl-Nva-[3-Ethyl,1-(4,4,5,5-tetramethyl-1,3,2-dioxaborolan-2-yl)]pentylamid]
24 | – | 53 | CCC[C@H](NC(=O)C(Cc1ccccc1)CS(=O)(=O)C(C)(C)C)C(=O)NC(B1OC(C)(C)C(C)(C)O1)C(C)CC (stereo partly shown) [Beispiel 50, (2-Benzyl,3-t-butylsulfonyl)propionyl-Nva-[2-Methyl,1-(4,4,5,5-tetramethyl-1,3,2-dioxaborolan-2-yl)]butylamid]
25 | 5 | 5 | CC(C)[C@H](NC(=O)C(Cc1cccc2ccccc12)CS(=O)(=O)C(C)(C)C)C(=O)NC(CC1CCCCC1)B1OC(C)(C)C(C)(C)O1 (stereo partly shown) [Beispiel 51, [3-t-Butylsulfonyl, 2-(1-naphthylmethyl)]propionyl-Val-[cyclohexylmethyl,(4,4,5,5-tetramethyl-1,3,2-dioxaborolan-2-yl)]methylamid]
